The numbers were not newly measured in US20250031694A1, “AGRICULTURAL CHEMICAL COMPOSITION AND METHOD FOR PRODUCING SAME” (MITSUI CHEMICALS CROP & LIFE SOLUTIONS, INC., priority 2021, published 2025), which cites them from elsewhere.

In brackets after ≈: the same amount, converted by molar mass.

For this data set the following is noted: FAMIC agrochemical abstract.

Turning to `CCCOCCN(C(=O)CCl)c1c(CC)cccc1CC` [pretilachlor], the “water solubility (25° C.)” value was 0.074 mg/mL (≈ 237 µM).
Turning to `CC(=O)Oc1c(C)c(C)nc2c(F)cc(C(C)(C)C)cc12` [tebufloquin], the “water solubility (20° C.)” value is 0.0202 mg/mL (≈ 69.8 µM).
With `CN1COCN(Cc2cnc(Cl)s2)/C1=N\[N+](=O)[O-]` [thiamethoxam], the “water solubility (25° C.)” value is 4.1 mg/mL (≈ 14100 µM).
As to `C=CCOC1=NS(=O)(=O)c2ccccc21` [probenazole], the “water solubility (20° C.)” value was 0.0366 mg/mL (≈ 164 µM).
